From PubChem BioAssay AID1645865 (Buhrlage Lab, Dana-Farber Cancer Institute and Novartis …, 2021) come the findings set out here.

In general, IC50 refers to the concentration that inhibits the measured activity by half.

Structures are written as SMILES. Active and inactive are the calls of the source.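 How the source made its calls: active means maximal inhibition of the USP30 enzyme reaching 30% or more across the dose series; inactive means the rest.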 Some results are limits rather than exact numbers.

Ubiquitin carboxyl-terminal hydrolase 30 (Homo sapiens), sequence (Q70CQ3 whole entry, looked up): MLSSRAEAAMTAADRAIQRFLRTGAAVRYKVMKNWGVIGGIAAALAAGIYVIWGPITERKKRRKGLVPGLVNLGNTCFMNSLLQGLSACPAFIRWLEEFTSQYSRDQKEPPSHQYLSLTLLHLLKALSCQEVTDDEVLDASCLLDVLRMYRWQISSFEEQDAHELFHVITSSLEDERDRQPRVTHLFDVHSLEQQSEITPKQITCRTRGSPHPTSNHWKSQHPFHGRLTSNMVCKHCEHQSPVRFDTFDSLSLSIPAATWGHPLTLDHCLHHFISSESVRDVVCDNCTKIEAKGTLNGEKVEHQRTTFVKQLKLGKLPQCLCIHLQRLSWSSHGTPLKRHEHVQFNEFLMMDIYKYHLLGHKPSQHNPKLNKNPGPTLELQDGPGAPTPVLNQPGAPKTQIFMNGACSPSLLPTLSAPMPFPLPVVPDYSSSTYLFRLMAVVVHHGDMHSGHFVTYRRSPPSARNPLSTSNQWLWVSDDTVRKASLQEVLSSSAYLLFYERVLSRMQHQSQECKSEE

The assay concerns the target Ubiquitin carboxyl-terminal hydrolase 30 (Homo sapiens) (UniProt Q70CQ3). The assay can be described thus: inhibitors of ubiquitin-specific protease 30 deubiquitylating enzyme, concentration dependence, in vitro biochemical, validation of primary hits (AID 1645865). Particulars: purified USP30, Ub-rhodamine cleavage, fluorescence, 2 h.
Take `O=C(CCc1ccc(S(=O)(=O)N2CCOCC2)cc1)Nc1ccc2c(c1)OCCO2`: the IC50 is > 50 µM (inactive).
For `COc1ccc(C2CC(c3ccc(C)cc3)N(C(=O)C3CC3)c3ncnn32)cc1` (stereo unspecified) the value was > 50 µM (inactive).
For `Cc1nc(SCC(=O)Nc2cc(Cl)ccc2C)c2oc3ccccc3c2n1` the value was 1.22 µM.
Then `COc1ccc(-c2cc3c(=O)n(CC(=O)Nc4ccccc4Cl)ccn3n2)cc1`, with 4.23 µM; and `CCCCCC(O)c1c(O)cc2c(c1O)C(=O)c1c(O)cc(O)cc1C2=O` (stereo unspecified), with > 50 µM (inactive).
`O=c1c2ccccc2oc2nc(-c3cccs3)n(-c3ccccc3)c(=O)c12`: the IC50 was 2.42 µM.
Regarding `Cc1cccc(-n2ccnc(SCC(=O)Nc3ccc(Cl)cc3F)c2=O)c1`, the IC50 was 2.4 µM.
Then `CN1C(=O)c2cc(NC(=O)c3ccccc3Cl)ccc2Oc2ccccc21`, with > 50 µM (inactive).
Then `FC(F)(F)c1ccccc1CCN1CCc2nc3ccc(Cl)cc3cc2C1`, with > 50 µM (inactive); and `COc1ccccc1-c1nc(Cn2nnc(C(=O)Nc3cc(C)cc(C)c3)c2N)c(C)o1`, with 39.7 µM.
For `O=C1CC(C(=O)Nc2ccc(F)cc2)n2nc(SCc3ccccc3)nc2N1` (stereo unspecified), the IC50 is 26.8 µM.
Take `NS(=O)(=O)c1cc(C(=O)OCC(=O)NC2CCCc3ccccc32)ccc1Cl` (stereo unspecified): the IC50 is > 50 µM (inactive).
For `C[C@]12C(=O)N(c3ccc(C(=O)NCc4ccc(F)cc4)cc3)C(=O)N1CCc1c2[nH]c2ccccc12` the value was 35.8 µM; for `COc1cc(C2SCC(=O)Nc3c2c(-c2ccccc2)nn3-c2ccccc2)cc(OC)c1OC` (stereo unspecified), > 50 µM (inactive).
For `Cc1cc(C)c2c(-n3cccc3)c(C(=O)NCCc3ccc(S(N)(=O)=O)cc3)sc2n1` the value was > 50 µM (inactive).
On to `Cc1sc2ncn3c(=O)n(CC(=O)Nc4ccc(F)c(Cl)c4)nc3c2c1C`, for which the IC50 is 2.07 µM.
`O=C(Nc1ccc(-c2cn3ccsc3n2)cc1)c1ccc(Cl)c([N+](=O)[O-])c1`: the IC50 is 1.27 µM.
With `Cc1cccc(NC(=O)CSc2ncnc3c2sc2nc(CC(C)C)c4c(c23)CCC4)c1`, the IC50 is 19.6 µM.
Then `Cc1cc(NC(=O)c2cc(-c3cccnc3)n[nH]2)ccc1Br`, with 1.26 µM; and `Cn1c(=O)/c(=C/c2ccccc2)[nH]c(=O)/c1=C/c1ccccc1`, with 14.6 µM; and `CCN(CC)C(=O)c1sc(NC(=O)/C=C/c2c(F)cccc2Cl)c(C#N)c1C`, with 1.89 µM.
For `CCCCN(C)C(=O)c1cc2c(=O)n3cccc(C)c3nc2n1Cc1ccccc1` the value was 36.8 µM.
As to `O=C(COc1ccc(S(=O)(=O)N2CCOCC2)cc1)N1CCC(Cc2ccccc2)CC1`, the IC50 was 49.5 µM.
Regarding `O=C(COc1cccc(-n2cnnn2)c1)Nc1ccc2c(c1)OCCO2`, the IC50 is > 50 µM (inactive).
For `Fc1ccc(-c2noc(-c3nnc(NCc4cccnc4)c4ccccc34)n2)cc1` the value was 1.92 µM; for `CC(=O)c1ccc(NC(=O)C2CCN(c3cncnc3N3CCCC3)CC2)cc1`, > 50 µM (inactive).
Take `O=c1c2ccccc2ncn1C1CCN(S(=O)(=O)c2ccccc2F)CC1`: the IC50 is 30.8 µM.
With `CCn1c(CNc2ccc(Cl)cc2)nnc1SCC(=O)Nc1ccccc1`, the IC50 was > 50 µM (inactive).
Then `Cc1nc2c3ccccc3nc(NCc3ccc4c(c3)OCO4)n2n1`, with 32.9 µM; and `Cc1cccc(C(=O)NCc2nc3ccccc3n2Cc2ccccc2C)c1`, with 41.8 µM; and `Cc1ccc(CN2CCCn3nc(C(=O)NCc4ccccc4C)cc3C2=O)cc1`, with 31.5 µM.
As to `Cc1cccc(C(=O)N2CCc3cc(-c4nc(NC(=O)CN5CCc6ccccc6C5)sc4C)ccc32)c1`, the IC50 was > 50 µM (inactive).
Take `O=C(Nc1ccccc1Br)c1ccn(COc2ccccc2F)n1`: the IC50 is 14.8 µM.
For `COc1ccc(S(=O)(=O)N2CCc3ccccc32)cc1C(=O)Nc1ccc2[nH]c(=O)[nH]c2c1` the value was 2.36 µM; for `N#Cc1ccc(NC(=O)COC(=O)c2ccc3ccccc3n2)cc1`, > 50 µM (inactive).
In the case of `CCCN1CCN(C(=O)c2cc(NC(=O)C3CCC3)cc3nc(C)ccc23)CC1`, the IC50 is > 50 µM (inactive).
Then `Cc1ccc(Nc2nc(C(=O)NCc3ccc4c(c3)OCO4)cc3occc23)cc1Cl`, with > 50 µM (inactive); and `Cc1ccc(NC(=O)c2cc(=O)n(C)c3c2c(=O)n(C)c(=O)n3C)c(C)c1`, with > 50 µM (inactive).
On to `COc1ccc(-c2[nH]c3ccccc3c2SCCNC(=O)c2ccc(S(=O)(=O)N3CCOCC3)cc2)cc1`, for which the IC50 is 28.7 µM.
Then `C=C1CCC2[C@](C)(CCC[C@]2(C)C(=O)OC)[C@H]1CCc1ccoc1C[N+](C)(C)Cc1ccccc1` (stereo partly specified), with 16.6 µM.
For `CCCCc1nc2sc3c(SCC(=O)Nc4cccc(C)c4)ncnc3c2c2c1CCC2` the value was > 50 µM (inactive); for `CCOc1ccc(NC(=O)Cn2c(=O)n(CCCCCC(=O)NCc3ccc(F)cc3)c(=O)c3sccc32)cc1`, 1.44 µM; for `COc1ccc(NC(=O)Nc2cccc(-c3nnc(-c4ccccc4)o3)c2)cc1OC`, 8.55 µM.
For `COc1ccc2nc(NC(=O)C(CC(C)C)NS(=O)(=O)c3ccc4c(c3)CCN4C(C)=O)sc2c1` (stereo unspecified) the value was 31.1 µM.
On to `Cc1nc2ccccn2c1C1(O)C(=O)Nc2c(Cl)cc(Cl)cc21` (stereo unspecified), for which the IC50 is > 50 µM (inactive).
Turning to `Cc1ccc2oc(=O)c(S(=O)(=O)N3CCCCC3)cc2c1`, the IC50 is 12.7 µM.
For `Cc1c(Cl)cccc1NC(=O)Cn1ccc2ccccc2c1=O` the value was 3.03 µM; for `CC(C)c1ccc(C(C(=O)NC2CCCCC2)N(C(=O)c2cnccn2)c2cccc(F)c2)cc1` (stereo unspecified), 22.9 µM.
Then `O=C1N(Cc2ccc(F)cc2)CCN1c1ccc2c(c1)CCC2`, with > 50 µM (inactive).
Then `Cn1cc(-c2noc(Cc3cccc(C(F)(F)F)c3)n2)ccc1=O`, with > 50 µM (inactive); and `CC1CCN(S(=O)(=O)c2ccc(C(=O)Nc3ccc(S(N)(=O)=O)cc3)cc2)CC1`, with 29.7 µM.
As for `CCOC(=O)[C@@H]1[C@@H](c2ccccc2)CN2CCN(C(=O)c3cnccn3)C[C@H]12`, the IC50 was > 50 µM (inactive).
Then `CC1OC2CC(O)C1(O)C1=C2C(O)=C(C(N)=O)C(=N)C1=O` (stereo unspecified), with > 50 µM (inactive); and `O=[N+]([O-])c1ccc(NCC2COc3ccccc3O2)c(Cl)c1` (stereo unspecified), with > 50 µM (inactive).
Turning to `COc1cccc(NC(=O)Nc2ccc(CCc3nc4ccccc4[nH]3)cc2)c1`, the IC50 was 28.2 µM.
As to `O=C(Nc1ccc2c(c1)OCCO2)Nc1nnc(CC(=O)N2CCCCC2)s1`, the IC50 is > 50 µM (inactive).
With `Cc1cc(C)cc(N(CCC(=O)Nc2ccc(N3CCOCC3)cc2)S(=O)(=O)c2ccc(Cl)cc2)c1`, the IC50 is 12.3 µM.
For the compound `O=S1(=O)CCN(Cc2ccccc2)c2c(F)nc(N3CCCCC3)c(F)c21`, the IC50 is > 50 µM (inactive).
Then `O=C(COc1ccc(Cl)cc1Cl)Nc1ccc2[nH]c(=O)[nH]c2c1`, with 4.06 µM; and `Cc1ccccc1C(=O)Nc1ccc(Cc2ccc(NC(=O)c3ccccc3C)c(O)c2)cc1O`, with > 50 µM (inactive).
For `COc1ccc(OC)c2c(C)cc(N3CCN(S(=O)(=O)c4ccc5c(c4)CCCN5S(C)(=O)=O)CC3)nc12` the value was 20.9 µM.
For `COc1ccc(CCC(=O)Nc2ccc3c(c2)Sc2ncccc2C(=O)N3C)cc1` the value was > 50 µM (inactive); for `COc1ccc(C2SCC(=O)Nc3c2c(=O)[nH]n3C2CCCCC2)cc1` (stereo unspecified), 30.1 µM.
On to `Cc1ccn(-c2ccc(NC(=O)c3ccccc3Sc3ccccc3C#N)cc2)n1`, for which the IC50 was 34.9 µM.
For `O=c1c(OC2O[C@H](CO)[C@H](O)[C@H](O)[C@H]2O)c(-c2ccc(O)cc2)oc2cc(O)cc(O)c12` (stereo partly specified) the value was > 50 µM (inactive); for `CC(C)NC(=O)Cn1ccn2nc(-c3ccc(Cl)cc3)cc2c1=O`, 3.6 µM; for `Cc1cc(C)nc(SCCn2c(N3CCC(Cc4ccccc4)CC3)nc3c2c(=O)n(C)c(=O)n3C)n1`, 46.9 µM.
For `Cc1cccc(NC(=O)CN2C(=O)CC(c3ccccc3)S(=O)(=O)c3ccccc32)c1C` (stereo unspecified) the value was 22.1 µM; for `O=C(CCCCn1c(=O)[nH]c2ccccc2c1=O)Nc1cccc(Cl)c1`, 21.6 µM; for `Cc1ccc(CNC(=O)c2ccc(N3C(=O)[C@@H]4Cc5ccccc5CN4C3=O)cc2)cc1`, 23.6 µM.
For `Cc1nn(-c2ccc(F)cc2)cc1-c1noc(C(=O)NCc2ccccn2)n1` the value was 27.7 µM; for `O=C1COc2ccc(NC(=O)c3cnn(Cc4ccccc4)c3)cc2N1`, 42.2 µM; for `Cc1ccc(Cn2c(=O)c3ccccc3n3c(CCC(=O)N4CCN(c5ccccn5)CC4)nnc23)cc1`, 3.41 µM.
As for `Cc1cc2nc(/C=C/c3ccccc3)n(Cc3cccc(F)c3)c2cc1C`, the IC50 was > 50 µM (inactive).
On to `COc1ccccc1OCc1ccc(C(=O)Nc2ccc(F)cc2C)cc1`, for which the IC50 was 28.3 µM.
Then `O=C(c1cn(-c2cccc(F)c2)nn1)N1CCc2ccccc2C1`, with 16.9 µM; and `O=C(COc1nc2ccccc2nc1N1CCOCC1)NC(c1ccccc1)c1ccccc1`, with > 50 µM (inactive).
For `N#Cc1cc2c(nc1SCC(=O)NCc1ccccc1)CCCC2` the value was > 50 µM (inactive).
Then `CCn1c(SCc2nc(N)c3ccccc3n2)nc2ccccc21`, with > 50 µM (inactive); and `COc1ccc2c(c1)c(N1CCCC1=O)c(C(=O)NCc1cccc(OC)c1OC)n2C`, with > 50 µM (inactive).
As to `C/C=C\C1=CC(=O)[C@]23C[C@H]2[C@]2(C)CO[C@@]1(O)[C@@]3(O)O2`, the IC50 is > 50 µM (inactive).
For `COc1ccccc1CNC(=O)c1ccc(CSc2nc3ccncc3n2Cc2ccccc2)cc1` the value was 44.9 µM; for `CCc1ccc(OCc2nnc(SCC(=O)Nc3ccccc3OC)n2Cc2ccccc2)cc1`, > 50 µM (inactive); for `CC(C)N1CC2CN(C(=O)c3ccccc3)CCN2Cc2ccccc21` (stereo unspecified), > 50 µM (inactive).
Consider `Cc1nn(CC(=O)Nc2ccc(Br)c3cccnc23)c(=O)c2ccccc12`, for which the IC50 is > 5 µM (inactive).
For `N#Cc1cccc(NC(=O)Cn2cccc(-c3nc(-c4ccccc4)no3)c2=O)c1` the value was > 50 µM (inactive).
